Source: ChEMBL document CHEMBL1134868, “Phosphonate and phosphinate analogues of N-acylated gamma-glutamylglutamate. potent inhibitors of glutamate carboxypeptidase II” (Bioorg Med Chem Lett, 2002)

Tests used:
[1] = biological target: T1, Folylpolyglutamate synthase, mitochondrial (Homo sapiens, UniProt Q05932); experiment: Compound was evaluated for its ability to inhibit Folyl-poly-gamma-glutamyl synthetase
T1 sequence (Q05932 whole entry): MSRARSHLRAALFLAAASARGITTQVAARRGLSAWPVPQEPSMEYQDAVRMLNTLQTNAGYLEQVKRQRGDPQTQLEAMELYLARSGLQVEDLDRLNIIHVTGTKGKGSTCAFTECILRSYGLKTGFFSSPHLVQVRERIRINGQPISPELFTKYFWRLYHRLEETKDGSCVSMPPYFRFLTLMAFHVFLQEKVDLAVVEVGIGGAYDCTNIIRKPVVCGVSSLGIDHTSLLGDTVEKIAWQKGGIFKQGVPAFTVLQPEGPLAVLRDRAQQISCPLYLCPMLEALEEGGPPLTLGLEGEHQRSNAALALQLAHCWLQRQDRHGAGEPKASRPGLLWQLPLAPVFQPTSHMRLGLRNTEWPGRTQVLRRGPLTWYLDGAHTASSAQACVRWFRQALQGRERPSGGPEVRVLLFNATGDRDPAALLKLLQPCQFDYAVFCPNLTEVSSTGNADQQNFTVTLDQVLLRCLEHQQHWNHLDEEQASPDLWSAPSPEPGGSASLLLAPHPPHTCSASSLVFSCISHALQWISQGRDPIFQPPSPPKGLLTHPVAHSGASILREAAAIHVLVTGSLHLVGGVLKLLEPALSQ

[2] = biological target: Glutamate carboxypeptidase 2 (Rattus norvegicus, UniProt P70627); experiment: Compound was evaluated for its ability to inhibit Glutamate carboxypeptidase-II using N-acetyl-L-aspartyl-[3H]L-glutamate as substrate
Sequence of Glutamate carboxypeptidase 2 (P70627 whole entry): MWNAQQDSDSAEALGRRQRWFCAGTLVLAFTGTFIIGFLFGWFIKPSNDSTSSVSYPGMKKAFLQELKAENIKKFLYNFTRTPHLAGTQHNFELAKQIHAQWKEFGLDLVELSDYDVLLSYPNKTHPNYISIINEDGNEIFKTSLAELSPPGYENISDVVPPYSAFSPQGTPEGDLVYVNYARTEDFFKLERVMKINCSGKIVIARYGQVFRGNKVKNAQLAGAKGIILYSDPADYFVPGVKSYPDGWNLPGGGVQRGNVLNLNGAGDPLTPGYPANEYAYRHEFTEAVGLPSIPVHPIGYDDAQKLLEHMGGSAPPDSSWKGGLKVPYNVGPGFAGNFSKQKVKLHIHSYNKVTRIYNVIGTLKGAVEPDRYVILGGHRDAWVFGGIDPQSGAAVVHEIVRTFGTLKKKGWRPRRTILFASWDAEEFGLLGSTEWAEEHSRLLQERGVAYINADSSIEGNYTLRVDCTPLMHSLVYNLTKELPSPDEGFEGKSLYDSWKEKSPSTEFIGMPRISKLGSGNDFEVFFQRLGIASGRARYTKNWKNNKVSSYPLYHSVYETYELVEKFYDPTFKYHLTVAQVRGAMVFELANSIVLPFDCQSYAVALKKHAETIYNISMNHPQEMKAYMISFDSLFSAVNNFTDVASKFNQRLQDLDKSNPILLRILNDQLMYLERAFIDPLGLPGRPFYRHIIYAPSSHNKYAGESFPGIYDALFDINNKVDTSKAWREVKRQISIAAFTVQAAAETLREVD

[3] = Compound was evaluated for its ability to inhibit Gamma glutamylhydroxylase

Structure (SMILES) | IC50 [1] | IC50 [2] | IC50 [3]
Nc1ccc(C(=O)N[C@@H](CCP(=O)(O)O[C@@H](CCC(=O)O)C(=O)O)C(=O)O)cc1 | 8600 nM | 3 nM | > 200000 nM
CNc1ccc(C(=O)N[C@@H](CCP(=O)(O)O[C@@H](CCC(=O)O)C(=O)O)C(=O)O)cc1 | 5700 nM | 4 nM | 
CN(Cc1cnc2nc(N)nc(N)c2n1)c1ccc(C(=O)NC(CCP(=O)(O)OC(CCC(=O)O)C(=O)O)C(=O)O)cc1 (stereo not given) | 20 nM | 5 nM | 
CN(Cc1cnc2nc(N)nc(N)c2n1)c1ccc(C(=O)N[C@@H](CCP(=O)(O)O[C@@H](CCC(=O)O)C(=O)O)C(=O)O)cc1 | 120 nM | 4 nM | > 200000 nM
